# Data as given in patent US8865756B2, “Inhibitors of HCV NS5A” (Presidio Pharmaceuticals, Inc., priority 2008, dated 2014).
# System: HCV 1b_Huh-Luc/Neo-ET cell line persistently expressing a bicistronic genotype 1b replicon in Huh 7 cells
# Assay: HCV replicon assay (luciferase readout)
# Format: cell-based
# Conditions: Hepatitis C virus, Huh-7, 72 h, read-out: Inhibition of HCV genotype 1b
# Method in brief: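 EC50, determined repeatedly, comes from a four-parameter logistic fit of luciferase signal as percent of untreated control. Readout follows 72 h compound exposure, in triplicate, of the HCV 1b_Huh-Luc/Neo-ET replicon line.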
row,Structure (SMILES),EC50
1,CC(C)[C@@H](NC(=O)OC(C)(C)C)C(=O)N1CCC[C@H]1c1ncc(C#Cc2ccc(-c3cnc([C@@H]4CCCN4C(=O)[C@H](NC(=O)OC(C)(C)C)C(C)C)[nH]3)cc2)[nH]1 [Compound 105],10 to 999 nM
2,COC(=O)N[C@@H](C(=O)N1CCC[C@H]1C(=O)Nc1ccc(C#Cc2ccc(-c3cnc([C@@H]4CCCN4C(=O)[C@H](NC(=O)OC)c4ccccc4)[nH]3)cc2)cc1)c1ccccc1 [Compound 171],< 1 nM
3,COC(=O)N[C@H](C(=O)N1CCC[C@H]1c1nc2ccc(C#Cc3ccc(-c4cnc([C@@H]5CCCN5)[nH]4)cc3)cc2[nH]1)C(C)C [Compound 1055],10 to 999 nM
4,COC(=O)N[C@H](C(=O)N1CCC[C@H]1c1ncc(-c2ccc(C#Cc3ccc4nc([C@@H]5CCCN5C(=O)[C@@H](NC(=O)OC)C(C)C)[nH]c4c3)cc2)[nH]1)C(C)C [Compound 802],< 1 nM
5,COC(=O)N[C@H](C(=O)N1CCC[C@H]1c1ncc(C#Cc2ccc(-c3ccc4nc([C@@H]5CCCN5C(=O)[C@@H](NC(=O)OC)C(C)C)[nH]c4c3)nc2)[nH]1)C(C)C [Compound 1086],< 1 nM
6,COC(=O)N[C@H](C(=O)N1CCC[C@H]1c1ncc(-c2ccc(C#Cc3ccc(-c4cnc([C@@H]5CCCN5C(=O)[C@@H](NC5CCOCC5)C(C)C)[nH]4)cc3)cc2)[nH]1)C(C)C [Compound 1001],1 to 9.9 nM
7,COC(=O)N[C@H](C(=O)N1CCC[C@H]1c1ncc(-c2ccc(C#Cc3ccc(-c4cnc([C@@H]5CCCN5C(=O)[C@H](NC(=O)N5CCC(C)(O)CC5)c5ccccc5)[nH]4)cc3)cc2)[nH]1)C(C)C [Compound 992],< 1 nM
8,CC(C)[C@H](NC(=O)N1CCOCC1)C(=O)N1CCC[C@H]1c1ncc(-c2ccc(C#Cc3ccc(-c4cnc([C@@H]5CCCN5C(=O)[C@@H](NC(=O)N5CCOCC5)C(C)C)[nH]4)cc3)cc2)[nH]1 [Compound 285],> 1000 nM
